Measured values as given in PMC5859730, “Dual targeting of the cancer antioxidant network with 1,4-naphthoquinone fused Gold(I) N-heterocyclic carbene complexes” (Chemical Science, 2017).
Where two headings read alike, the source gives them in different places.

How the values were obtained:
[1] = Differential pulse voltammetry, quinone reduction potentials; format: physicochemical; settings: DMSO, 0.1 M [N(nBu)4][PF6], 0.1 mM analyte, vs. SCE
Experimental: A series of electrochemical analyses, including cyclic voltammetry (CV) and differential pulse voltammetry (DPV), were carried out with [NnBu4][PF6] in anhydrous dimethyl sulfoxide (DMSO) in order to evaluate electronic properties of compounds 1–3 and 4[H][Cl]. […] These electrochemical features were attributed to the reduction of the quinone moiety to first produce the semiquinone radical (NQ^–) and then produce the quinone dianion (NQ^2–) forms of compounds 1–3 and 4[H][Cl].[70],[71] The quinone reduction potential in 4[H][Cl] occurs at –0.38 V, the lowest of all the molecules studied, indicative of a positively charged imidazolium ring. The quinone couple at –0.42 V observed for compound 1 is ascribed to the presence of bis(NHC). The same wave in compound 3 appears at a more negative potential (–0.47 V), presumably due to greater trans effects excreted by quinone annulated NHC ligand than the metal-bound chloride. This analysis agrees well with the differences in the observed δ^13C (Au–Ccarbene) resonances for compounds 1 and 3. […]
mM) as referenced to SCE (internal standard Fc0/+, adjusted to 0.435 V vs. SCE).

[2] = tested on: A549 lung cancer cells; assay: Cell proliferation (MTT assay) in A549 lung cancer cells; format: cell-based, human
Experimental: To gauge the ability of each complex to inhibit cancer cell growth, A549 lung cancer cells were treated with 1–3, 4[H][Cl], doxorubicin, and auranofin in a dose responsive manner. Cellular vitality (i.e., mitochondrial reductase activity) was then quantified colorimetrically post treatment using 3-(4,5-dimethylthiazol-2-yl)-2,5-diphenyltetrazolium bromide (MTT assay) (Table 2, Fig. 5).
(§1) Biological preparations and assays
(§2) Experimental compound preparation. Stock solutions of complexes 1–3, 4[H][Cl], auranofin (Tocris Bioscience 4600), and doxorubicin (Tocris Bioscience 2252) were dissolved in DMSO (2.5–10 mM, depending on the compound and its solubility), aliquoted, and stored at -80 °C prior to use.
(§3) Biological Materials and Cell Lines. Cell lines were obtained from the ATCC (A549 and PC-3) and Prof.
Zahid Siddik at M.D. Anderson Cancer Center (A2780 and A2780CP). Cell culture plastic ware (i.e. T-75 flasks, treated 6-well plates, treated 96-well plates, and cell scrapers) were obtained from Fisher Scientific. Cell were cultured in RPMI 1640 culture medium (+2mM glutamine, +25mM HEPES, Corning 10041cv) supplemented with 10% heat-inactivated fetal bovine serum (RMBIO FBS-BBT) and 1X penicillin-streptomycin (Sigma p4333). Unless otherwise noted, incubators were set to 37°C and 5% CO2.
Trypsin (HyClone SH30236.01) and 1X Phosphate Buffered Saline (HyClone SH30258.02, diluted in autoclaved deionized water) were utilized for general cell line maintenance and harvesting. Trace Metal […]
Cell Proliferation Studies. Cells were harvested and seeded into 96-well culture plates (Costar 07-200-90) in 100µL of culture media. They were allowed to incubate overnight at 37 °C in the presence of 5% CO2. […]
and PC-3 at 2000 cells/well. […]
were made. To each well of a 96 well plate was added 100 µL of the appropriate solution. After a total of three days, a […] aliquot of 3 mg/mL tetrazolium dye, 3-(4,5-dimethylthiazol-2-yl)-2,5-diphenyltetrazolium bromide (Alfa Aesar L11939) was added to each well, followed by a 4 hr incubation period at 37 °C. The medium was then removed, the resulting formazan was dissolved in […] DMSO and the respective absorbances were measured at 560–650 nm using a microplate reader (Molecular Devices, Sunnyvale, CA). Absorbance values were corrected for background and then normalized to wells containing untreated cells to allow for plate-to-plate comparisons. The data are shown as mean inhibition of proliferation or growth as a percentage of control cells and are from 2–3 replicate experiments. Resulting dose response curves were subjected to linear regression analysis (Origin by OriginLab, Inc.) for determination of IC50 values.

[3] = tested on: A2780 ovarian; assay: Cell proliferation (MTT assay) in A2780 ovarian cells; format: cell-based, human; settings: wt-p53, platinum sensitive; Table 3
Experimental: (§4) Further anti-proliferation studies were carried out with complex 1 and its naphthoquinone component 4[H][Cl] using the following cell lines: A2780 ovarian (a wt-p53 cell line sensitive to platinum treatment), 2780CP ovarian (isogenic to A2780 but expressing multi-drug resistance (MDR)), and PC-3 prostate (p53 null) (Table 3).
as §1, §2, §3
(§5) Zahid Siddik at M.D. Anderson Cancer Center (A2780 and A2780CP). Cell culture plastic ware (i.e. T-75 flasks, treated 6-well plates, treated 96-well plates, and cell scrapers) were obtained from Fisher Scientific. […]
(§6) were made. […] The medium was then removed, the resulting formazan was dissolved in […] DMSO and the respective absorbances were measured at 560–650 nm using a microplate reader (Molecular Devices, Sunnyvale, CA). Absorbance values were corrected for background and then normalized to wells containing untreated cells to allow for plate-to-plate comparisons. […]

[4] = tested on: 2780CP ovarian; assay: Cell proliferation (MTT assay) in 2780CP ovarian cells; format: cell-based, human; settings: isogenic to A2780, multi-drug resistance; Table 3
Experimental: as §4, §1, §2, §3, §5, §6

[5] = tested on: PC-3 prostate; assay: Cell proliferation (MTT assay) in PC-3 prostate cells; format: cell-based, human; settings: p53 null; Table 3
Experimental: as §4, §1, §2, §3, §5, §6

[6] = tested on: A549 lung cancer cells; assay: ICP-MS detection of intracellular Au (cellular uptake)
[7] = tested on: zebrafish embryos; assay: Zebrafish toxicity analysis (lethality, MTD); format: in vivo
[8] = tested on: DNA duplex (5'CCGCAGCCA3'/5'TGGCTGCGG3'); assay: Thermal denaturation of a DNA duplex; format: binding; settings: 1 molar equivalent, 5 μM complex and duplex
[9] = tested on: thioredoxin reductase (TrxR); settings: A549, 0.1–0.6 μM, 6 h exposure, lipoate reduction over 180 min
Experimental: Briefly, plateau phase A549 cells were exposed to variable doses of complexes 1, 3, 4[H][Cl], a 2 : 1 molar ratio of 4[H][Cl] and 5 (cocktail), auranofin, and doxorubicin for 6 h. Post treatment, the live cells were monitored colorimetrically over 180 min for their ability to reduce lipoate (Fig. 8a).

Compound: Cc1cc(C)c(-n2c3c(n(-c4c(C)cc(C)cc4C)[c]2=[Au-]=[c]2n(-c4c(C)cc(C)cc4C)c4c(n2-c2c(C)cc(C)cc2C)C(=O)c2ccccc2C4=O)C(=O)c2ccccc2C3=O)c(C)c1.[Cl][Ag-][Cl] [Complex 1, [bis(1,3-dimesityl-4,5-naphthoquino-imidazol-2-ylidene)-gold(I)] [silver(I)dichloride]]
- E 1/2 a (V) DPV ([1]; first reduction, semiquinone radical (NQ˙–)): –0.42 V
- E 1/2 b (V) DPV ([1]; second reduction, quinone dianion (NQ2–)): –1.31 V
- Fold difference relative to 1 ([2]; A549, ratio of IC50 to that of 1 (Table 2)): 1
- IC50 ([2]; A549 lung cancer cells, MTT, 72 h, read-out: IC50): 73 nM
- IC50 ([2]; Table 3, error = standard error from the mean, read-out: IC50 A549 lung): 73 ± 16 nM
- IC50 [3]: 26 ± 7 nM
- IC50 [4]: 54 ± 6 nM
- IC50 [5]: 96 ± 17 nM
- Intracellular Au levels (uptake), in words [6]: identical
- Lethality ([7]; zebrafish embryos, concentrations above 1 μM): 100%
- LC50 (50% lethal concentration) ([7]; zebrafish embryos/larvae): 0.75 µM
- Mortality ([7]; zebrafish larvae, 0.75 μM dose): ~ 50%
- Thermal stabilization of DNA [8]: no thermal stabilization
- Inhibition of TrxR at low concentrations [9]: inhibition of TrxR was apparent
